Reference: article PMC8122790, “Chemical Constituents of Cassia abbreviata and Their Anti-HIV-1 Activity” (Molecules, 2021)
Where two headings read alike, the source gives them in different places.

Key:
[1] = Cytotoxicity in MT4 cells (MTT); type: cell-based; details: for IC50 at 5 days: human
Method: MT4 cells were obtained through the NIH AIDS Reagent Program and cultured in RPMI 1640 (Lonza, Wijchen, the Netherlands) supplemented with 10% heat-inactivated fetal bovine serum (Lonza, the Netherlands) and 2mM L-glutamine (Invitrogen, Gosselies, Belgium). MT-4 cells were incubated with the crude extract of Cassia abbreviatta or the tested compounds alone to assess cytotoxicity, or HIV-1 IIIB alone or a mixture of the tested extract and compounds and HIV-1 IIIB viruses to assess protection against HIV-1 infection. […] Data were normalized to cells without treatment. Values of OD540−OD690 were calculated to determine IC50 values in Prism. The entry inhibitors, enfuvirtide, and AMD3100 (Sigma Aldrich, Liège, Belgium), were used as positive controls.

HIV-1 IIIB = assay: microbe, parasite or virus in culture; details: read-out: IC50 HIV-1 Infection
Method: The crude extract of Cassia abbreviata and all isolated compounds were assessed for their anti-HIV activity in MT4 cells infected by the reference strain HIV-1 IIIB (Figure 3). […] Enfuvirtide and Plerixafor are entry inhibitors for positive controls.
MT4 cells were obtained through the NIH AIDS Reagent Program and cultured in RPMI 1640 (Lonza, Wijchen, the Netherlands) supplemented with 10% heat-inactivated fetal bovine serum (Lonza, the Netherlands) and 2mM L-glutamine (Invitrogen, Gosselies, Belgium). MT-4 cells were incubated with the crude extract of Cassia abbreviatta or the tested compounds alone to assess cytotoxicity, or HIV-1 IIIB alone or a mixture of the tested extract and compounds and HIV-1 IIIB viruses to assess protection against HIV-1 infection. After five days, protection from viral infection and the cytotoxicity were evaluated in parallel using (3-(4,5-dimethylthiazol-2-yl)-2,5-diphenyltetrazolium bromide (MTT, Sigma, Liège, Belgium) by measuring OD540 and OD690 using a POLARstar Omega Plate Reader (BMG Labtech, Ortenberg, Germany). Data were normalized to cells without treatment. Values of OD540−OD690 were calculated to determine IC50 values in Prism. The entry inhibitors, enfuvirtide, and AMD3100 (Sigma Aldrich, Liège, Belgium), were used as positive controls.

[2] = Human immunodeficiency virus 1, IIIB, MT4, 120 h
[3] = MT4 cells incubated with compound alone, five days, MTT, read-out: IC50 Cytotoxicity

Compound `CC12OC(=O)CC1C1Oc3c(c(O)cc(O)c3C3c4ccc(O)cc4OC(c4ccc(O)cc4)C3O)CC1O2` (stereo not drawn) [Cassiabrevone (1), guibourtinidol (4α→8) planchol A] has an IC50 at 5 days [1] of over 333 µM and an IC50 (HIV-1 IIIB; [2]) of 11.9 ± 2.14 µM.
`Oc1ccc([C@H]2Oc3cc(O)ccc3[C@@H](c3c(O)cc(O)c4c3O[C@H](c3ccc(O)cc3)[C@H](O)C4)[C@@H]2O)cc1` [Guibourtinidol-(4α→8)-epiafzelechin (4), guibourtinidol-(4α→8)-epiafzelechin] gave an IC50 at 5 days [1] of over 333 µM and an IC50 (HIV-1 IIIB; [2]) of 15.4 ± 9.09 µM.
For `CC1(C)CC[C@]2(C(=O)O)CC[C@]3(C)C(=CC[C@@H]4[C@@]5(C)CC[C@H](O)C(C)(C)[C@@H]5CC[C@]43C)[C@@H]2C1` [Oleanolic acid (17), oleanolic acid], the IC50 at 5 days [1, 3] was over 333 µM and the IC50 (HIV-1 IIIB; [2]) was 7.95 ± 2.57 µM.
`CCCCCCCCCCCCCCCC(=O)O` [Palmitic acid (28), Palmitic acid] showed an IC50 at 5 days [1] of over 333 µM and an IC50 (HIV-1 IIIB; [2]) of 16 ± 3.04 µM.
With `Oc1cc(O)cc(/C=C/c2ccc(O)c(O)c2)c1` [Piceatannol (22), piceatannol] the IC50 at 5 days [1] was over 333 µM and the IC50 (HIV-1 IIIB; [2]) was 3.58 ± 0.27 µM.
Compound `c1cc(CN2CCCNCCNCCCNCC2)ccc1CN1CCCNCCNCCCNCC1` [Plerixafor (AMD3100), Plerixafor, reference compound] has an IC50 at 5 days [1] of over 1 µM and an IC50 (HIV-1 IIIB; [2]) of 0.075 ± 0.009 µM.
Compound `O=C1c2c(O)cc(O)cc2OC(c2ccc(O)c(O)c2)C1O` (stereo not shown) [Taxifolin (8), taxifolin] has an IC50 at 5 days [1, 3] of over 333 µM and an IC50 (HIV-1 IIIB; [2]) of 49 ± 5.02 µM.
For Enfuvirtide, the IC50 (HIV-1 IIIB; MT4 cells infected by reference strain HIV-1 IIIB, five days, MTT, mean ± SD, three experiments) was 0.0096 ± 0.001 µM.
For enfuvirtide, the IC50 ([1]; MT4 cells incubated with compound alone, five days, MTT) was over 1 µM.
